Test results taken from patent US6071747A, “Immortalized cell lines from human adipose tissue, process for preparing same and applications thereof” (Centre National de la Recherche Scientifique-CNRS, priority 1995, dated 2000).
Where two headings read alike, the source gives them in different places. Blank lines part the entries; values can stand above or below the compound they belong to.

Key:
[1] = tested on: β-adrenergic receptors coupled with adenylyl cyclase in PAZ-6 cells; conditions: for Accumulation of cAMP, pmol cAMP/mg protein: agonist 15 min at 37° C.
Description: (§1) The following method is used to determine the intracellular levels of cAMP:
(§2) The incubation buffer is removed and the cells are lyzed in 1 M NaOH for at least 20 min at 37° C. The lyzate is neutralized with 1 M acetic acid and centrifuged in a microcentrifuge at maximum speed for 5 min.
(§3) The supernatant is used to determine the cAMP (cAMP-^3 H kit, Amersham).

[2] = molecular target: β-adrenergic receptors coupled with adenylyl cyclase in PAZ-6 cells (Homo sapiens, UniProt P13945); conditions: differentiated PAZ-6; 15 min
Description: as §1, §2, §3

[3] = tested on: differentiated PAZ-6 human adipocytes; assay: Lipolysis assay (glycerol release) on the PAZ-6 line; format: cell-based; conditions: differentiated PAZ-6 adipocytes; 2 hours at 37° C.; forskolin 10^-4 M, other agonists 10^-5 M; catecholamines with or without phentolamine 20 μg/ml
Description: The lipolysis test consists in measuring the amount of glycerol generated by the mature adipocytes treated with lipolytic ligands.
Monolayers of (differentiated) mature adipocytes in culture plates (6 wells) are washed and preincubated overnight in DMEM/Ham's F12 (1:1, v/v) comprising 1% of fatty acid-free BSA. The cells are then incubated in a Krebs-Ringer phosphate buffer (pH 7.4) comprising 2% of fatty acid-free BSA, 4.5 g/l of glucose, 50 μg/ml of Na2 S2 O5 and the β-adrenergic ligands, in a volume of 500 μl, for 2 hours at 37° C.
The glycerol level is measured on 100 μl of incubation medium by following the reduction of NAD to NADH at 340 nm in the presence of 10 μg/ml of glycerol dehydrogenase (derived from Enterobacter aerogenes, Boehringer Mannheim) in the following reaction buffer: K2 CO3 /NaHCO3 125 mM pH 10, NAD 3.5 mM and (NH4)2 SO4 330 mM.

[4] = tested on: mRNA coding for the Ob protein; conditions: rat adipocytes; cited from earlier work
[5] = tested on: β-adrenergic receptors (I-CYP binding sites) of PAZ-6 cells
Description: * determination of the binding sites for the β antagonist ligand iodocyanopindolol (I-CYP) in the PAZ-6 cell line
The cells are washed with PBS, incubated for 5 minutes at 37° C. with a solution of trypsin/2% EDTA and resuspended in DMEM supplemented with 10% (v/v) of horse serum.
After centrifugation at 450×g for 5 minutes at 4° C., the cellular residue is washed twice with PBS and the cells are then resuspended in PBS.
The actual binding assay itself is carried out for 90 min at 25° C. in a final volume of […] of PBS supplemented with 50 mg/ml of bovine serum albumin and 1 mM desipramine.
The reaction is stopped by rapid filtration through a Whatman GF/C glass fibre filter previously immersed for 30 min in a solution of PBS containing 0.3% of polyethyleneimine (to reduce the non-specific bindings).
The protein concentrations are determined by the method of M. Bradford (Anal. Biochem., 1976, 72, 248-256).
Bovine serum albumin is used as the standard and the cellular suspensions are homogenized with a Polytron homogenizer for a maximum of 5 seconds before the reaction.

PAZ-6 preadipocytes = assay: Differentiation of PAZ-6 preadipocytes into mature adipocytes; format: cell-based, human; conditions: in the presence of insulin and dexamethasone; 1 μM pioglitazone
Description: The cells are inoculated at a density of 10,000 cells/cm^2 and cultivated for 3 days in a medium containing 6% of foetal calf serum in order to obtain confluence; an ITT medium (DMEM/HAM F12 medium supplemented with biotin, pantothenate, Hepes, T3, penicillin and streptomycin, as defined above) is then added to said cells, said medium also containing 0.1 μM dexamethasone, 850 nM insulin, 1 μM pioglitazone and 0.25 mM IBMX (3-isobutyl-1-methylxanthine) for 4 days.

Ob mice = Ob mice with mutant gene; injected; cited from earlier work

Sequence of β-adrenergic receptors coupled with adenylyl cyclase in PAZ-6 cells (Homo sapiens, UniProt P13945) (P13945 whole entry): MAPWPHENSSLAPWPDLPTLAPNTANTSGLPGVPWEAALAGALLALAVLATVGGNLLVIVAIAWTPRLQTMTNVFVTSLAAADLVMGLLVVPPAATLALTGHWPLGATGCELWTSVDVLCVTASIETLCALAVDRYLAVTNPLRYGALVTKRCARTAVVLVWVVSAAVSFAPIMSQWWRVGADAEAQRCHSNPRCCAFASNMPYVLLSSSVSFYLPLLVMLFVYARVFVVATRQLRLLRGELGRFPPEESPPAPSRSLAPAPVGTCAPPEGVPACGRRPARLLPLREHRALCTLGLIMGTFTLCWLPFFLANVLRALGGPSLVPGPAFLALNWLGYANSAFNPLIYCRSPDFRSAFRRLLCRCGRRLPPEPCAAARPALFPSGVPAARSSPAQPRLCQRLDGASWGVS

Compound: CC(C)(C)NCC(O)COc1cccc2[nH]c(=O)[nH]c12 (stereo not shown) [CGP 12177A]
Accumulation of cAMP, pmol cAMP/mg protein ([1]; PAZ-6 differentiated): 323 ± 129 pmol cAMP/mg protein
Accumulation of cAMP, pmol cAMP/mg protein ([1]; PAZ-6 not differentiated): 254 ± 167 pmol cAMP/mg protein
stimulation of the adenylyl cyclase ([1]; undifferentiated PAZ-6): does not cause any significant stimulation
stimulation (cAMP) compared with isoproterenol activating all β-AR sites [2]: 20%
lipolysis (glycerol generated relative to basal level, FIG. 4) [3]: Lipolysis is also seen to be induced

Compound: C[C@H](Cc1ccc2c(c1)OC(C(=O)O)(C(=O)O)O2)NC[C@H](O)c1cccc(Cl)c1 [CL 316,43]
levels of mRNA coding for the Ob protein [4]: reduce substantially
lipolysis (glycerol generated relative to basal level, FIG. 4) [3]: Lipolysis is also seen to be induced

reduction of the number of I-CYP binding sites [5]: 34%
Compound: Cc1ccc(OCC(O)C(C)NC(C)C)c2c1CCC2 (stereo not shown) [ICI 118551]

Compound: O=C(O)COc1ccc(OCCNCC(O)COc2ccccc2)cc1 (stereo not shown) [ICI 201651]
lipolysis (glycerol generated relative to basal level, FIG. 4) [3]: Lipolysis is also seen to be induced

Compound: CNC[C@H](O)c1ccc(O)c(O)c1 [epinephrine]
lipolysis (glycerol generated relative to basal level, FIG. 4) [3]: lipolysis induced

Compound: C=C[C@@]1(C)CC(=O)[C@]2(O)[C@@]3(C)[C@@H](O)CCC(C)(C)[C@@H]3[C@H](O)[C@H](OC(C)=O)[C@@]2(C)O1 [forskolin]
lipolysis (glycerol generated relative to basal level, FIG. 4) [3]: lipolysis induced

Compound: CC(C)NCC(O)c1ccc(O)c(O)c1 (stereo not shown) [isoproterenol, isoprenaline]
Accumulation of cAMP, pmol cAMP/mg protein ([1]; PAZ-6 differentiated): 2083 pmol cAMP/mg protein
Accumulation of cAMP, pmol cAMP/mg protein ([1]; PAZ-6 not differentiated): 4344 pmol cAMP/mg protein

Compound: NC[C@H](O)c1ccc(O)c(O)c1 [norepinephrine]
lipolysis (glycerol generated relative to basal level, FIG. 4) [3]: lipolysis induced

Compound: CCc1ccc(CCOc2ccc(CC3SC(=O)NC3=O)cc2)nc1 (stereo not shown) [pioglitazone]
differentiation into mature adipocytes (PAZ-6 preadipocytes): significantly increased

Compound: leptin: leptin (Ob protein), product of the Ob gene
appetite and obesity (Ob mice): reduces appetite and hence obesity
